The results in this text go back to patent publication US20220324833A1, “PROCESS FOR PREPARATION OF 2-HYDROXY-6-((2-(1-ISOPROPYL-1H-PYRAZOL-5-YL)PYRIDIN-3-YL)METHOXY)BENZALDEHYDE” (Global Blood Therapeutics, Inc., priority 2020, published 2022).

This data set in a line: Approximate solubility at ambient temperature. The class given is physicochemical. Here is the method:
Approximate solubility values were measured for the as-received material at ambient temperature. […] The approximate solubility values were considered in the design of form screen experiments.

Structures are written as SMILES.

On to `CC(C)n1nccc1-c1ncccc1CO` [compound (3)], for which the approximate solubility result is given as “Limited to intermediate solubility” (MTBE, toluene, water, and select solvent mixtures); “low solubility” (heptane); “high solubility” (most of the organic solvents tested).
